Measurements from PubChem BioAssay AID720577 (The Scripps Research Institute Molecular Screening Center, 2013).
Several values for one entry are separate records, joined by “and”; a condition that tells them apart may be missing. Identical values can stand only once. Activity calls are given as the source filed them. The rule behind the calls is not given here.

target: CCHF virus vOTU protease domain (L polyprotein); assay: Crimean Congo hemorrhagic fever virus vOTU protease, Pep AMC substrate, counterscreen, confirmatory (AID 720577); settings: purified vOTU, fluorescence

Compound	IC50
COc1cccc2c1C(=O)c1c(O)c3c(c(O)c1C2=O)C[C@@](O)(C(=O)CO)C[C@@H]3O[C@H]1C[C@H](N)[C@H](O)[C@H](C)O1	inactive
Cn1c(=O)c2c(-c3ccccc3)n(-c3ccc(N)cc3)cc2n(C)c1=O	inactive
Cc1ccccc1NC1=C/C(=N\S(=O)(=O)c2ccc(C(=O)O)cc2)c2ccccc2C1=O	0.536 µM
O=C1C(SCCO)=C(SCCO)C(=O)c2ccccc21	7.34 µM
COc1ccc(/C=N/NC(=O)c2nn(-c3ccc(Cl)cc3)c(=O)c3c(N)scc23)cc1	inactive
O=S(=O)(Nc1cc2nc3ccccc3nc2n1Cc1ccccc1)c1ccc(Cl)cc1	7.6 µM
O=C1C=C(Nc2ccccc2C(=O)O)c2ccccc2C1=O	7.39 µM
O=[N+]([O-])c1cc(O)c2ncccc2c1	inactive
CC(C)(C)c1cc[n+](C2=C([O-])c3ccccc3C(=O)/C2=N\S(=O)(=O)c2cccs2)cc1	inactive
COc1cc2c(cc1OC)-c1c(OC)c(OC)cc3c1[C@H](C2)N(C)CC3	> 12.7 µM (inactive)
COc1ccc(N2C(=O)[C@@H]3[C@H](C2=O)[C@H]2c4ccccc4C=CN2[C@@H]3C(C)=O)cc1	inactive
COC(=O)c1nc(-c2ccc3c(n2)C(=O)C(N)=C(OC)C3=O)c(N)c(-c2ccc(OC)c(OC)c2O)c1C	2.58 µM
O=C1Cc2ccccc2C(=O)N1Cc1ccccc1	1.3 µM
COc1cc(NCCCCCCN)c2ncccc2c1OC	5.97 µM
CCCCCCCCN1C(=O)[C@@H](CC(=O)NCCCOCCCC)C[C@@]2(C(=O)OC)C1=C[C@H](C(C)C)O[C@@H]2C1CC1	inactive
Cc1cc(NC2=CC(=O)C(=O)c3ccccc32)no1	inactive
CC1CCCC(NC(=O)COC(=O)c2ccc([N+](=O)[O-])s2)C1C (stereo not drawn)	inactive
CC(=O)c1ccc(NC(=S)Nc2cccc3cnccc23)cc1	7.69 µM
O=C(NCCCO)c1ccc2nc(-c3ccco3)c(-c3ccco3)nc2c1	inactive
NC1=C(Br)C(=O)c2ncccc2C1=O	1.1 µM
C[n+]1cccc2cccc([O-])c21	inactive
CCCCCCCCCCCCCCCC[n+]1cccc2ccccc21	4.2 µM
COc1ccc2noc3c2c1C(=O)c1ccccc1-3	6.28 µM
CN(C1=C(NC(=O)c2ccccc2)C(=O)c2ccccc2C1=O)C1CCS(=O)(=O)C1 (stereo not drawn)	9.59 µM
O=C(COC(=O)c1ccc([N+](=O)[O-])s1)Nc1ccc(F)cc1	inactive

Compound	IC50
O=C(/C=C/c1ccc([N+](=O)[O-])s1)N1CCCCC1	> 115 µM (inactive)
CCc1cc[n+](C2=C([O-])c3ccccc3C(=O)/C2=N\S(=O)(=O)c2cccs2)cc1	inactive
CC1=C(SCc2ccccc2)C(=O)c2ccccc2C1=O	9.91 µM
Cn1c2ccccc2c2cc(/C=N/NC(=O)c3cc(O)ccc3O)ccc21	inactive
CCCCCCCCCCCCCCCC[n+]1ccccc1	7.79 µM and 8.46 µM and 6.99 µM
COC1=C(N)C(=O)c2nc(C)ccc2C1=O	4.98 µM
N#CC1=C(S)N(c2ccccc2)C(c2ccc(-c3ccc(Cl)c(Cl)c3)o2)NC1=O (stereo not drawn)	> 115 µM (inactive)
COc1ccccc1NC(=O)COC(=O)c1ccc([N+](=O)[O-])s1	inactive
O=[N+]([O-])c1ccccc1-c1ccc(C(=S)N2CCCC2)o1	inactive
O=S(=O)(c1ccc2nc(-c3ccco3)c(-c3ccco3)nc2c1)N1CCOCC1	> 115 µM (inactive)
O=C(O)CSc1cc(NS(=O)(=O)c2ccc(Br)cc2)c2ccccc2c1O	inactive
CCOc1ccc2noc3c2c1C(=O)c1ccccc1-3	inactive
COc1cc(NC(=O)COC(=O)c2ccc([N+](=O)[O-])s2)cc(OC)c1OC	inactive
CCC(C)n1c(NC(=O)c2ccccc2)c(C#N)c2nc3ccccc3nc21 (stereo not drawn)	> 12.7 µM (inactive)
CCOc1ccc(NC(=S)Nc2ccc3nsnc3c2)cc1	inactive
COc1ccc(S(=O)(=O)/N=C2\C=C(Nc3ccc(O)cc3)C(=O)c3ccccc32)cc1	1.33 µM
Cc1cc2c(cc1C)C(=O)C(Br)=C(N)C2=O	inactive
O=C(OCc1nnc(-c2ccccc2)o1)c1ccc([N+](=O)[O-])s1	inactive
NS(=O)(=O)c1ccc(NC(=O)COC(=O)c2ccc([N+](=O)[O-])s2)cc1	inactive
COc1cc(Br)c(C(=O)c2nccc3cc(OC)c(OC)cc23)cc1OC	1.13 µM
CCCCCCCCCCCCN1[C@@H](CC(=O)O)c2cc(F)ccc2S1(=O)=O	inactive
O=C(O)CCCNc1cc(N2CCN(C(=O)c3ccco3)CC2)c2noc3c2c1C(=O)c1ccccc1-3	inactive
O=C1C(Nc2cccc(O)c2)=C(N2CCCCC2)C(=O)c2ccccc21	inactive
S=C(Nc1ccc(Cl)cc1)Nc1cccc2cnccc12	8.74 µM
Cc1oc2c(c1C(=O)O)C(=O)c1ccccc1C2=O	inactive

Compound	IC50
CCn1nc(/C=C/c2ccccc2)nc2c(=O)n(C)c(=O)nc1-2	0.487 µM
NC1=C(Cl)C(=O)c2ccc(S(N)(=O)=O)cc2C1=O	0.387 µM
c1coc(-c2nnc(-c3ccco3)nn2)c1	inactive
Oc1c(N=Nc2nn[nH]n2)ccc2ccccc12	inactive
CCCCn1c(NS(=O)(=O)c2ccccc2)c(S(=O)(=O)c2ccc(C)cc2)c2nc3ccccc3nc21	> 115 µM (inactive)
O=C(O)c1cc(O)c2c(c1)[C@H]([C@H]1c3cc(C(=O)O)cc(O)c3C(=O)c3c(O[C@@H]4O[C@H](CO)[C@@H](O)[C@H](O)[C@H]4O)cccc31)c1cccc(OC3O[C@H](CO)[C@@H](O)[C@H](O)[C@H]3O)c1C2=O (stereo partly drawn)	7.68 µM
O=C1Nc2ccc([N+](=O)[O-])cc2C1=Nc1cccc(CO)c1	inactive
CC(=O)[C@@H]1[C@@H]2C(=O)N(c3ccc(F)c(Cl)c3)C(=O)[C@@H]2C2c3ccccc3C=CN21 (stereo partly drawn)	inactive
COc1ccc(NC(=S)Nc2ccc3nsnc3c2)cc1	6.9 µM
O=C(COC(=O)c1ccc([N+](=O)[O-])s1)Nc1ncc(C(F)(F)F)cc1Cl	inactive
O=C1C(N2CCOCC2)=C(n2nnc3ccccc32)C(=O)c2ccccc21	6.3 µM
CN1CCN(C2=C(Cl)C(=O)c3ccccc3C2=O)CC1	1.07 µM
Cc1cc(C)c(S(=O)(=O)/N=C2\C=C(Nc3ccc(C(=O)O)cc3)C(=O)c3ccccc32)c(C)c1	4.54 µM
Cc1oc2c(c1C(=O)N1CCOCC1)C(=O)c1ccccc1C2=O	inactive
Cc1c(C=O)c(Cl)n(C)c(=O)c1C#N	inactive
O=C(NC1=CC(=O)c2ccccc2C1=O)c1ccccc1	inactive
CCc1ccc(S(=O)(=O)/N=C2\C=C(Nc3cccc(C(=O)O)c3)C(=O)c3ccccc32)cc1	2.51 µM
O=C1OC(Nc2cc(Br)cc3cccnc23)c2ccccc21 (stereo not drawn)	5.44 µM
Cc1ccc(NC2=C/C(=N/S(=O)(=O)c3cccs3)c3ccccc3C2=O)cc1	1.79 µM
COc1ccc(CNC(=O)c2c(C)oc3c2C(=O)c2ccccc2C3=O)cc1	inactive
O=C(O)c1ccc(S(=O)(=O)/N=C2\C=C(Nc3ccccc3F)C(=O)c3ccccc32)cc1	1.24 µM
O=C(O)c1ccc(NC2=C/C(=N/S(=O)(=O)c3ccccc3)c3ccccc3C2=O)cc1	1.03 µM
COC(CNC(=O)c1ccc2c3c(onc13)-c1ccccc1C2=O)OC	inactive
